In PubChem BioAssay (NCI):
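Dose response: 5 concentrations. Exposure: 48 h. Format: 96-well plates. Endpoint: linear interpolation; highest concentration if not reached. TGI marks complete inhibition of growth.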

Tests used:
Experiment in all cases: NCI-60 cell line screen, 48 h
[1] = tested on: SN12C renal
[2] = tested on: SK-OV-3 ovarian
[3] = tested on: HOP-18 NSCLC
[4] = tested on: RPMI-8226 leukemia
[5] = tested on: HCC-2998 colon
[6] = tested on: OVCAR-4 ovarian
[7] = tested on: NCI-H522 lung
[8] = tested on: MALME-3M melanoma
[9] = tested on: UACC-62 melanoma
[10] = tested on: DMS 273 small cell lung
[11] = tested on: OVCAR-5 ovarian
[12] = tested on: CAKI-1 renal
[13] = tested on: NCI-H226 lung
[14] = tested on: M14 melanoma
[15] = tested on: SK-MEL-2 melanoma
[16] = tested on: SK-MEL-28 melanoma
[17] = tested on: IGROV1 ovarian
[18] = tested on: HL-60(TB) leukemia
[19] = tested on: SF-539 CNS
[20] = tested on: K-562 leukemia
[21] = tested on: HCT-15 colon
[22] = tested on: MOLT-4 leukemia
[23] = tested on: SNB-19 CNS
[24] = tested on: SF-268 CNS
[25] = tested on: HOP-62 NSCLC
[26] = tested on: NCI-H23 lung
[27] = tested on: DMS 114 small cell lung
[28] = tested on: OVCAR-8 ovarian
[29] = tested on: HOP-92 NSCLC
[30] = tested on: KM20L2 colon
[31] = tested on: LXFL 529 NSCLC
[32] = tested on: DLD-1 colon
[33] = tested on: HT29 colon
[34] = tested on: A498 renal
[35] = tested on: UACC-257 melanoma
[36] = tested on: LOX IMVI melanoma
[37] = tested on: SNB-78 CNS
[38] = tested on: EKVX NSCLC
[39] = tested on: RXF 393 renal
[40] = tested on: ACHN renal
[41] = tested on: UO-31 renal
[42] = tested on: A549 NSCLC
[43] = tested on: TK-10 renal
[44] = tested on: NCI-H460 lung
[45] = tested on: SR leukemia
[46] = tested on: SF-295 CNS
[47] = tested on: HCT-116 colon
[48] = tested on: SNB-75 CNS
[49] = tested on: M19-MEL melanoma
[50] = tested on: SK-MEL-5 melanoma
[51] = tested on: XF 498 CNS
[52] = tested on: CCRF-CEM leukemia
[53] = tested on: COLO 205 colon
[54] = tested on: U251 CNS
[55] = tested on: 786-0 renal
[56] = tested on: SW-620 colon
[57] = tested on: KM12 colon
[58] = tested on: RXF-631 renal
[59] = tested on: OVCAR-3 ovarian

Measured: TGI

NC(N)=N/N=C(/c1nc2ccc([N+](=O)[O-])cc2[nH]c1=O)C(O)c1ccco1 (stereo unspecified)
> 100 µM: [1] | [2] | [3] | [4] | [5] | [6] | [7] | [8] | [9] | [10] | [11] | [12] | [13] | [14] | [15] | [16] | [17] | [18] | [19] | [20] | [21] | [22] | [23] | [24] | [25] | [26] | [27] | [28] | [29] | [30] | [31] | [32] | [33] | [34] | [35] | [36] | [37] | [38] | [39] | [40] | [41] | [42] | [43] | [44] | [45] | [46] | [47] | [48] | [49] | [50] | [51] | [52] | [53] | [54] | [55] | [56] | [57]

Cc1cc2c(CC(=O)O)[nH]nc2c(C(=O)O)c1C
> 100 µM: [1] | [2] | [3] | [4] | [5] | [58] | [8] | [9] | [10] | [11] | [13] | [59] | [15] | [16] | [18] | [19] | [21] | [22] | [23] | [24] | [25] | [26] | [28] | [29] | [30] | [31] | [32] | [33] | [35] | [36] | [37] | [38] | [39] | [40] | [41] | [42] | [43] | [44] | [45] | [46] | [47] | [48] | [49] | [51] | [52] | [53] | [54] | [55] | [56]
